The text below walks through data of ChEMBL document CHEMBL4376854, “Investigation of the Adrenergic and Opioid Binding Affinities, Metabolic Stability, Plasma Protein Binding Properties, and Functional Effects of Selected Indole-Based Kratom Alkaloids” (J Med Chem, 2020).

One experiment concerns Rattus norvegicus. Kind of experiment: Antinociceptive activity in Sprague-Dawley rat dosed intravenously using cumulative dosing every 5 mins until rat maxed-out on hot plate by hot plate test. It counts as functional. Particulars: iv. For orientation: In hot-plate and tail-flick tests a longer latency is read as antinociception.
Experiment [1] addresses T1, Alpha-1B adrenergic receptor (Homo sapiens) (UniProt P35368).
T1 sequence (whole entry): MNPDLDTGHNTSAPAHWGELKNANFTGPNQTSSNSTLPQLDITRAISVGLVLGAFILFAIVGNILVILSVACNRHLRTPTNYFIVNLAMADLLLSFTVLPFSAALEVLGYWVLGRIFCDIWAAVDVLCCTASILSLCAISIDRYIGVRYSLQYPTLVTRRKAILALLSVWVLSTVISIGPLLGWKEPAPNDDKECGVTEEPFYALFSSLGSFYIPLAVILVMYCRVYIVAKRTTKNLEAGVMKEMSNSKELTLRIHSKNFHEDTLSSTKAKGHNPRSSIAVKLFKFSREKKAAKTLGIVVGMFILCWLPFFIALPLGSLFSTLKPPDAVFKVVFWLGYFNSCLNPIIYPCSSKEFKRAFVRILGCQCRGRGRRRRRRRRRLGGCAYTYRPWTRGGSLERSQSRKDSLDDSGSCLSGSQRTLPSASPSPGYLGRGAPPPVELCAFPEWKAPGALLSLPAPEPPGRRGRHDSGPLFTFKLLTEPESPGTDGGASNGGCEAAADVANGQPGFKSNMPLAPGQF
Particulars: CHO, 100 nM.

In experiment [2] the target is T2, Alpha-1A adrenergic receptor (Homo sapiens, UniProt P35348).
T2 sequence (P35348 whole entry): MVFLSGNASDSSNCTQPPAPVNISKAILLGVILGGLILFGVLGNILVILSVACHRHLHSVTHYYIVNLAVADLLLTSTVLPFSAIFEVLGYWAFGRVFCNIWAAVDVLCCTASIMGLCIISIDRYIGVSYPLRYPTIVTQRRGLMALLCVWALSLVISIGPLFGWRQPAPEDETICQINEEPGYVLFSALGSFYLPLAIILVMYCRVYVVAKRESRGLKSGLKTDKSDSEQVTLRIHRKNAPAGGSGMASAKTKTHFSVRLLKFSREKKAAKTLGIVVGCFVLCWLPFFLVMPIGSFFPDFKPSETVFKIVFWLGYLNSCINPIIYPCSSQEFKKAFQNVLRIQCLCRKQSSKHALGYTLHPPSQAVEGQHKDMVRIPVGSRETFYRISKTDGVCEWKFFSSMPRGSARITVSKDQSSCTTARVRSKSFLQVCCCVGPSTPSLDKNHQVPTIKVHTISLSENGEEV
As to the kind of experiment: Displacement of [3H]prazosin from human recombinant adrenergic alpha-1A receptor expressed in CHO cell membranes incubated for 60 mins.

Experiment [3] addresses T3, Alpha-1B adrenergic receptor (Homo sapiens, UniProt P35368).
T3 sequence (P35368 whole entry): T1 sequence (whole entry)
As to the kind of experiment: Displacement of [3H]prazosin from human recombinant adrenergic alpha-1B receptor expressed in CHO cell membranes incubated for 60 mins. A general note: Loss of bound radioactivity is the signal in a displacement assay; it reports binding, not function.

Experiment [4] has as its target T4, Alpha-1D adrenergic receptor (Homo sapiens, UniProt P25100).
T4 sequence (P25100 whole entry): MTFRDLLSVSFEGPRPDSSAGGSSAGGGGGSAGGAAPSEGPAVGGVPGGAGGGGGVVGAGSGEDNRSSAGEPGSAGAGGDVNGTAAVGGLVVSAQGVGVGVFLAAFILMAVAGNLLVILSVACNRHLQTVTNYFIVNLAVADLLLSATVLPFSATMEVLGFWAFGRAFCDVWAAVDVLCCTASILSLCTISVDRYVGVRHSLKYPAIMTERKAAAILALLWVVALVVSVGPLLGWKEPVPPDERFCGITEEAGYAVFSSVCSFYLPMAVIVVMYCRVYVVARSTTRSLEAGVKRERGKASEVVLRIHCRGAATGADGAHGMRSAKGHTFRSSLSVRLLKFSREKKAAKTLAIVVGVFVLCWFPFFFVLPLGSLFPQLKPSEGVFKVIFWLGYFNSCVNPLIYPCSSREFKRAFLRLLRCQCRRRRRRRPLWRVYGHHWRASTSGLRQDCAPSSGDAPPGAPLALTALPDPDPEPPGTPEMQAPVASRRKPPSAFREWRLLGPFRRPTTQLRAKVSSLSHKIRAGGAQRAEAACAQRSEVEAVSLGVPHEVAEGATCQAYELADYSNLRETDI
As to the kind of experiment: Displacement of [3H]prazosin from human recombinant adrenergic alpha-1D receptor expressed in CHO cell membranes incubated for 60 mins.

Experiment [5] deals with T5, Alpha-2C adrenergic receptor (Homo sapiens) (UniProt P18825).
T5 sequence (whole entry): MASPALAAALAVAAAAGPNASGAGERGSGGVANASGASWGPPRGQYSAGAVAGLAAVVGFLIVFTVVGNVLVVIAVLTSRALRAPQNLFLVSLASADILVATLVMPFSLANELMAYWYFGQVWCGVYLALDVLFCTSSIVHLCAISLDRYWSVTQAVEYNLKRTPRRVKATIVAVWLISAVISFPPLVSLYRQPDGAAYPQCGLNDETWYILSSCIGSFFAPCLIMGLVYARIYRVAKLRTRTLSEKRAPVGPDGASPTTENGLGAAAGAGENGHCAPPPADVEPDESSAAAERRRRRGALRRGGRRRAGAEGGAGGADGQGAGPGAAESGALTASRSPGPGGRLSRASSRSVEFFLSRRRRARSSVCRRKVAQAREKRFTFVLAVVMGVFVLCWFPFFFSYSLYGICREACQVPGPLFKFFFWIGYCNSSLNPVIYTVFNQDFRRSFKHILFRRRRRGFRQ
Kind of experiment: Competitive antagonist activity at human recombinant adrenergic alpha-2C receptor expressed in CHO cells assessed as inhibition of epinephrine-induced intracellular calcium levels incubated at room temperature by fluorimetry. It counts as functional, cell-based.

For a further experiment, the target named is Mu-type opioid receptor (Homo sapiens, UniProt P35372). The settings on record: HEK293, 100 nM.
Mu-type opioid receptor, sequence (P35372 whole entry): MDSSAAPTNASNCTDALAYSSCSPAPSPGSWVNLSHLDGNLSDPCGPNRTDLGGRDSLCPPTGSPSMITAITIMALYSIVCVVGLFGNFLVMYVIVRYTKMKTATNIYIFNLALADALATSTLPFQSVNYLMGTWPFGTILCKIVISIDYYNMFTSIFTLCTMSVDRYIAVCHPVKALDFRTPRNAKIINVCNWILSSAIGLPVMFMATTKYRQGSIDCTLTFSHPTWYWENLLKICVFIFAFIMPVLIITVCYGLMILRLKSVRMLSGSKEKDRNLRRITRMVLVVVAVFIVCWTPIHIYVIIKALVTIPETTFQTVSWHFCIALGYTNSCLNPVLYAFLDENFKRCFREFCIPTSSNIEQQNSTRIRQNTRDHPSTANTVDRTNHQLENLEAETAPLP
Experiment [6] addresses T6, Alpha-2A adrenergic receptor (Homo sapiens, UniProt P08913).
T6 sequence (P08913 whole entry): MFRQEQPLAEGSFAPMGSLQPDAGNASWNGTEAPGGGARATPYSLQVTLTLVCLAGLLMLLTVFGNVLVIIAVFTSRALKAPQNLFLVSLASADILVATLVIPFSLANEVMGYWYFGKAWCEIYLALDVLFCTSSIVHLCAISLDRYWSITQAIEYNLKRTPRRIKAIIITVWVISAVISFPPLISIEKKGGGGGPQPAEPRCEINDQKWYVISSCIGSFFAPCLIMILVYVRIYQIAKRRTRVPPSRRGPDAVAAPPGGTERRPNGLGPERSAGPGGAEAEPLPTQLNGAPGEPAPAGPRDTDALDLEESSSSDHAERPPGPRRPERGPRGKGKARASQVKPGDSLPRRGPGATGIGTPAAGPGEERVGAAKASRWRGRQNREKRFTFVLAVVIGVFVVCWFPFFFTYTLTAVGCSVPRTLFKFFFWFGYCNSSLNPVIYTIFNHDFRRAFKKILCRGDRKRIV
As to the kind of experiment: biochemical.

Experiment [7] concerns the target T7, Alpha-2C adrenergic receptor (Homo sapiens, UniProt P18825).
T7 sequence (P18825 whole entry): T5 sequence (whole entry)
As to the kind of experiment: biochemical.

The source made the active and inactive calls. The calls are words filed in the database; no cut-off is given here.

As for `CC[C@@H]1CN2CCc3c([nH]c4cccc(OC)c34)[C@H]2C[C@@H]1/C(=C\OC)C(=O)OC`, the ED50 with Rattus norvegicus is 6.25 mg/kg. Further, in experiment [1], the inhibition came to 25.2%.
`CC[C@@H]1CN2CCc3c([nH]c4cccc(OC)c34)[C@@H]2C[C@@H]1/C(=C\OC)C(=O)OC`: the Ki in [2] came out at 1.34 µM; in experiment [3], 4.77 µM; in [4] it was 5.48 µM; in experiment [6] it was 4.72 µM; in experiment [7], 2.32 µM. For the same compound, the inhibition entry in experiment [5] was “Active”. Moreover, on Mu-type opioid receptor, the inhibition worked out at 29%.

For orientation: ED50 means the midpoint of the dose-response relation. Read a low ED50 as greater potency. One may read the inhibition as the share of the control response that was lost under treatment. One may read the Ki as the equilibrium dissociation constant of an inhibitor or competing ligand from its target.
